{
  "source": "paper PMC11481913",
  "about": "“Rational design of a flavoenzyme for aerobic nicotine catabolism” (mBio, 2024)",
  "molecular_target": "T1, Pnao (Pseudomonas putida, UniProt F8G0P1)",
  "T1 construct": "dimer",
  "T1 sequence (F8G0P1 whole entry)": "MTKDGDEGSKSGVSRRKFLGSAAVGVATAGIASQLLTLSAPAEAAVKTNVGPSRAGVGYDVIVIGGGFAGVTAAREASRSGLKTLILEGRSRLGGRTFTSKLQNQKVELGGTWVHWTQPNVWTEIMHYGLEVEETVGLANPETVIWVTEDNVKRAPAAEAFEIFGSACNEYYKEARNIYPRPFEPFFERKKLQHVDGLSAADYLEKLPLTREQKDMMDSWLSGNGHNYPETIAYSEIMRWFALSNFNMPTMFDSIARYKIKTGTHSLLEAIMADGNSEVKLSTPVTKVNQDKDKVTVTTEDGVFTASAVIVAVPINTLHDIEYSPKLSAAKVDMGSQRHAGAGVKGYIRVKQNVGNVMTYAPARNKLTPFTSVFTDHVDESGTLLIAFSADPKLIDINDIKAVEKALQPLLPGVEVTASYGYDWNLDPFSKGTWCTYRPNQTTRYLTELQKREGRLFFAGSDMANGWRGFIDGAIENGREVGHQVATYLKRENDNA",
  "test": "FAD reduction at […] nm (stopped-flow); FAD-binding ratio by HPLC",
  "settings": "FAD co-purified with the enzyme",
  "data": [
    {"smiles": "Cc1cc2nc3c(=O)[nH]c(=O)nc-3n(C[C@H](O)[C@H](O)[C@H](O)COP(=O)(O)OP(=O)(O)OC[C@H]3O[C@@H](n4cnc5c(N)ncnc54)[C@H](O)[C@@H]3O)c2cc1C", "note": "[FAD, flavin adenine dinucleotide]", "values": [
      {"measurement": "FAD reduction at 450 nm (stopped-flow); FAD-binding ratio by HPLC", "value": "the enzyme-bound FAD is transformed from the oxidized to the hydroquinone"}
    ]}
  ]
}
